Tests used:
uPAR−/− mice = experiment: Healing of full thickness excisional cutaneous wounds after topical, on wound administration; type: in vivo
Description: The urokinase-type plasminogen activator receptor deficient (uPAR−/−) mouse that reproduces cardinal features of SSc (dermal) vasculopathy and fibrosis is an animal model of systemic sclerosis that is considered as disease-relevant. The uPAR−/− mouse integrates apoptosis of dermal endothelial cells, a decreased density of dermal microvessels and endothelial to mesenchymal transition reflecting vasculopathy with dermal thickening, collagen accumulation, enhanced myofibroblast counts reflecting skin fibrosis. uPAR−/− induces and develops dermal and pulmonary fibrosis (Manetti M et al. Ann Rheum Dis. (2014) 73:1700-1709; Manetti M et al Ann Rheum Dis. (2017) 76:924-934; Schniering J et al., (2019) In Atlas of Ulcers in Systemic Sclerosis. Diagnosis and Management. Matucci-Cerinic M and Denton C P (eds). Springer, Chain, Switzerland, pp. 27-37).
uPAR−/− mice were bred from mating of heterozygotes (uPAR+/−; obtained from Institute for Translational Neurology and Neurology Clinics, University of Munster, Germany). Pups were genotyped and uPAR−/− mice obtained at Mendelian frequency. Two full thickness, excisional cutaneous wounds (6 mm diameter corresponding to an area of 28.3 mm^2) were generated, symmetrically to the dorsum midline. To this end, at the day before surgery, mice were anaesthetized with Isoflurane and their dorsum was shaved using Veet® depilatory cream and clippers. At the next following day, preoperative analgesia was administered at 30 min before surgery consisting of 0.1 mg/kg of Buprenorphine and 5 mg/kg of Ketoprofen. Animals were anesthetized with Isoflurane. Two full thickness wounds (including epidermis, dermis, hypodermis, panniculus carnosus; depth about 500 μm) of 6 mm diameter each were created using a biopsy punch and scissors each with identical, at least 10 mm distance left or right from the dorsum midline. To minimize wound contraction, wounds were splinted using a silicon splint (Grace Bio-Labs silicone wound splints, red with suture sites, outer diameter×inner diameter×thickness 14 mm×7 mm×0.5 mm). Splints were kept in place using six interrupted surgical sutures (6/0 polyamide-Ethylon) and Superglue (ethyl 2-cyanoacrylate glue) (Park S A et al. Wound Repair Regen. (2014) 22(3):368-380; Park S A et al. Wound Repair Regen. (2015) 23(2):251-261).
The cutaneous ulcers and the splint were protected using a plastic cover maintained using a non-woven adhesive dressing (Hypafix® (Smith & Nephew)) and a semiocclusive adhesive transparent dressing (Tegaderm™, (3M™)). Ketoprofen (5 mg/kg) and Buprenorphine (0.05 mg/kg) were administered for 3 days and then Buprenorphine (0.05 mg/kg) as needed. The estimated volume of a cutaneous ulcer was 28.3 mm^2 area×0.5 mm depth=14.15 mm^3 or 14.15 μl. […]

rat aortic rings = experiment: Relaxation of rat aortic rings; conditions: earlier effected measurements
[1] = Solubility screening of Compound 1 in various solvents/solvent systems; type: physicochemical; conditions: read-out: Determined Solubility
Description: A solubility screening of Compound 1 was effected. […] In general, three potential approaches where covered: i) polar organic co-solvents, ii) solubilization by surfactants and iii) oils which may, in particular, serve as a basis of an emulsion gel. A phosphate buffer of pH 6.5 with low molarity was used as this salt and pH is suitable for application on wounds. It is of note that the resulting pH of the screened systems is about 7.3.

[2] = Solubility of Compound 1 in solvent systems comprising PEG400; type: physicochemical; conditions: room temperature, read-out: Determined Solubility
Description: A solubility study of Compound 1 in solvent systems comprising PEG400 in various concentrations was effected.

**Q.** What does the source list for CCCOc1ccc(S(=O)(=O)N2CCC(CCO[N+](=O)[O-])CC2)cc1-c1nn2c(CCC)c(/C=N/O)c(C)c2c(=O)[nH]1 [Compound 1, 2-[1-(3-{6-[(1E)-(hydroxyimino)methyl]-5-methyl-4-oxo-7-propyl-3H,4H-pyrrolo[2,1-f][1,2,4]triazin-2-yl}-4-propoxybenzenesulfonyl)piperidin-4-yl]ethyl nitrate]?
**A.** acceleration of wound closure versus Vehicle (uPAR−/− mice; uPAR−/− mice, based on means of % Wound Closure from day 5 to day 8): about 1 day; AUEC for % wound closure compared to vehicle (uPAR−/− mice; uPAR−/− mice, day 0-7): significant increase; healing of full thickness excisional cutaneous wounds (conclusion) (uPAR−/− mice; uPAR−/− mice, once daily topical, in form of Topical Composition A2): improved; part of wound closure delay associated with uPAR deficiency restored (uPAR−/− mice; uPAR−/− vs uPAR+/+ mice, from AUEC (Table 6)): about half; IC40 for relaxation of rat aortic rings (rat aortic rings): 8 µM; solubility ([1]; 1% poloxamer 407 in phosphate buffer, pH 6.5, aqueous with cosolvent or surfactant or cyclodextrin, 1% poloxamer 407 in PB, PB = Phosphate buffer 10 mmol/L pH 6.5): 270 µg/mL; solubility ([1]; 1% polysorbate 80 in phosphate buffer, pH 6.5, aqueous with cosolvent or surfactant or cyclodextrin, 1% polysorbate 80 in PB, PB = Phosphate buffer 10 mmol/L pH 6.5): 77 µg/mL; solubility ([1]; 3% polysorbate 80 in phosphate buffer, pH 6.5, aqueous with cosolvent or surfactant or cyclodextrin, 3% polysorbate 80 in PB, PB = Phosphate buffer 10 mmol/L pH 6.5): 139 µg/mL; solubility ([1]; 8% polysorbate 80 in phosphate buffer + 3% benzyl alcohol, pH 6.5, aqueous with cosolvent or surfactant or cyclodextrin, 8% polysorbate 80 in PB + 3% benzyl alcohol, PB = Phosphate buffer 10 mmol/L pH 6.5): 56 µg/mL; solubility ([1]; 8% polysorbate 80 in phosphate buffer + 10% MCT, pH 6.5, aqueous with cosolvent or surfactant or cyclodextrin, 8% polysorbate 80 in PB + 10% MCT, PB = Phosphate buffer 10 mmol/L pH 6.5): 37 µg/mL; solubility ([1]; 8% polysorbate 80 in phosphate buffer + 10% ethanol, pH 6.5, aqueous with cosolvent or surfactant or cyclodextrin, 8% polysorbate 80 in PB + 10% ethanol, PB = Phosphate buffer 10 mmol/L pH 6.5): 43 µg/mL; solubility ([1]; 8% polysorbate 80 in phosphate buffer + 10% poloxamer 407, pH 6.5, aqueous with cosolvent or surfactant or cyclodextrin, 8% polysorbate 80 in PB + 10% poloxamer 407, PB = Phosphate buffer 10 mmol/L pH 6.5): 63 µg/mL; solubility ([1]; 8% polysorbate 80 in phosphate buffer, pH 6.5, aqueous with cosolvent or surfactant or cyclodextrin, 8% polysorbate 80 in PB, PB = Phosphate buffer 10 mmol/L pH 6.5): 67 µg/mL; solubility ([1]; 10% poloxamer 407 in phosphate buffer, pH 6.5, aqueous with cosolvent or surfactant or cyclodextrin, 10% poloxamer 407 in PB, PB = Phosphate buffer 10 mmol/L pH 6.5): 23.2 µg/mL; solubility ([1]; PEG 400/phosphate buffer (30:70, vol:vol), pH 6.5, aqueous with cosolvent or surfactant or cyclodextrin, PEG 400/PB (30:70, vol:vol), PB = Phosphate buffer 10 mmol/L pH 6.5): 1 µg/mL; solubility ([1]; PEG 400/phosphate buffer (70:30, vol:vol), pH 6.5, aqueous with cosolvent or surfactant or cyclodextrin, PEG 400/PB (70:30, vol:vol), PB = Phosphate buffer 10 mmol/L pH 6.5): 110 µg/mL; solubility ([1]; isopropyl myristate (IPM), oil or lipid, Isopropyl myristate (IPM)): 93 µg/mL; solubility ([1]; medium chain triglycerides (MCT), oil or lipid, Medium chain triglycerides (MCT)): 282 µg/mL; solubility ([1]; octyldodecanol (Kollicream OD), oil or lipid, Octyldodecanol (Kollicream OD)): 28 µg/mL; solubility ([1]; pH 6.5, aqueous with cosolvent or surfactant or cyclodextrin, PEG 400/PB (30:70, vol:vol) + 3% benzyl alcohol, PB = Phosphate buffer 10 mmol/L pH 6.5): 8 µg/mL; solubility ([1]; pH 6.5, aqueous with cosolvent or surfactant or cyclodextrin, PEG 400/PB (30:70, vol:vol) + 3% polysorbate 80, PB = Phosphate buffer 10 mmol/L pH 6.5): 20 µg/mL; solubility ([1]; pH 6.5, aqueous with cosolvent or surfactant or cyclodextrin, PEG 400/PB (30:70, vol:vol) + 10% poloxamer 407, PB = Phosphate buffer 10 mmol/L pH 6.5): 54 µg/mL; solubility ([1]; polyethylene glycol PEG 400, organic solvent or mixture, Polyethylene glycol PEG 400): 10500 µg/mL; solubility ([2]; aqueous with cosolvent or surfactant or cyclodextrin, PEG400:benzyl alcohol:phosphate buffer (44:1:55) vol:vol, Phosphate buffer 12 mmol/L pH 6.7): 0.861 µg/mL; solubility ([2]; aqueous with cosolvent or surfactant or cyclodextrin, PEG400:benzyl alcohol:phosphate buffer (49:1:50) vol:vol, Phosphate buffer 12 mmol/L pH 6.7): 2.18 µg/mL; solubility ([2]; aqueous with cosolvent or surfactant or cyclodextrin, PEG400:benzyl alcohol:phosphate buffer (54:1:45) vol:vol, Phosphate buffer 12 mmol/L pH 6.7): 5 µg/mL; solubility ([2]; aqueous with cosolvent or surfactant or cyclodextrin, PEG400:benzyl alcohol:phosphate buffer (59:1:40) vol:vol, Phosphate buffer 12 mmol/L pH 6.7): 12.8 µg/mL; solubility ([2]; aqueous with cosolvent or surfactant or cyclodextrin, PEG400:benzyl alcohol:phosphate buffer (64:1:35) vol:vol, Phosphate buffer 12 mmol/L pH 6.7): 37 µg/mL; solubility ([2]; aqueous with cosolvent or surfactant or cyclodextrin, PEG400:benzyl alcohol:phosphate buffer (69:1:30) vol:vol, Phosphate buffer 12 mmol/L pH 6.7): 112 µg/mL; solubility ([2]; aqueous with cosolvent or surfactant or cyclodextrin, PEG400:benzyl alcohol:phosphate buffer (79:1:20) vol:vol, Phosphate buffer 12 mmol/L pH 6.7): 882 µg/mL; solubility ([2]; aqueous with cosolvent or surfactant or cyclodextrin, PEG400:benzyl alcohol:phosphate buffer (89:1:10) vol:vol, Phosphate buffer 12 mmol/L pH 6.7): 1770 µg/mL; solubility ([2]; organic solvent or mixture, PEG400:benzyl alcohol (99:1) vol:vol): 12700 µg/mL
